Reference: patent US20260324636A1, “COMPOSITION FOR PROVIDING PLANT WITH STRESS RESISTANCE” (KIRIN HOLDINGS KABUSHIKI KAISHA, priority 2022, published 2026)

Columns and labels:
[1] = tested on: Arabidopsis thaliana; assay: High-temperature stress resistance in liquid culture (leaf chlorosis, chlorophyll content), Example 1; type: in vivo, Arabidopsis thaliana (Col-0); conditions: for chlorosis of plants caused by the high-temperature treatment: 2 h before 44° C. for 60 minutes, then 22° C. 3 days; for chlorophyll content (fresh weight basis): 44° C. 60 minutes, vs group not subjected to the treatment
Text: A wild-type Arabidopsis thaliana strain (accession: Col-0) was used as an experimental material. Seeds were purchased from Inplanta Innovations Inc. (https://www.inplanta.jp/).
A liquid medium containing a ½ Murashige and Skoog Plant Salt Mixture (Nacalai) and 1 (w/v) % sucrose (FUJIFILM Wako) was used as a growth medium.
Arabidopsis thaliana seeds were sterilized with the use of a Kitchen Haiter® liquid (bleach for kitchen available from Kao Corporation) diluted to one-half concentration with distilled water for 3 minutes, washed 3 times with sterile distilled water, and then incubated at 4° C. overnight. The growth medium was dispensed at 1 ml/well on a 24-well microplate (IWAKI), 3 grains of the seeds were inoculated in each well, and the plate was transferred to the incubator (TOMY) to initiate growing. The incubator was maintained at a temperature of 22° C. for a daily cycle of 16 hours light and 8 hours darkness.
Before high-temperature treatment, a stock solution of N-acetylglutamic acid (Tokyo Chemical Industry Co., Ltd.) was added to Arabidopsis thaliana 7 days after seeding to the final concentration of 0, 0.01, 0.05, and 0.1 mM in the media, followed by incubation for 2 hours. Sterile distilled water was used as a solvent for the stock solution of N-acetylglutamic acid.
High-temperature treatment was performed with the use of an incubator. The plate was transferred to an incubator maintained at 44° C., incubated for 60 minutes to perform high-temperature treatment, and cultured in an incubator maintained at 22° C. for 3 days.
Plants are known to lose the green pigment chlorophyll from tissue such as leaves upon high-temperature stress exposure and become chlorotic as a consequence. Accordingly, the chlorophyll content was quantified after the high-temperature treatment to evaluate activity of N-acetylglutamic acid to enhance high-temperature stress resistance. The chlorophyll content was quantified in accordance with the method of Yamaguchi et al. (Nature Commun., Jun. 9, 2021, 12 [1]: 3480). To the collected plants, N,N-dimethylformamide (FUJIFILM Wako) was added at 1 ml/well, and incubation was performed at 4° C. in the dark overnight to extract the chlorophyll. Thereafter, the absorbance of the chlorophyll extract was measured at 647 nm (A647) and 664 nm (A664), respectively, using a microspectrophotometer (NanoPhotometer, Implen), and the chlorophyll content was calculated in accordance with the formula: 19.43×A647+8.05×A664. […] Thus, the chlorophyll content was calculated on a fresh weight basis to compare the chlorophyll content among samples.

[2] = tested on: H1HSFA2; assay: H1HSFA2 gene expression by real-time PCR, Example 7; type: in vivo, hop; conditions: 1 mM in medium, 20° C. for 2 hours, leaves; read-out: H1HSFA2 expression level, increase vs control
Text: In order to design primers for the target genes necessary for gene expression analysis by real-time PCR, homologs of Arabidopsis thaliana high-temperature-responsive genes in hop were searched for. The amino acid sequences of Arabidopsis thaliana HSFA2 (AGI code: AT2G26150) and HSP17.6C (AGI code: AT1G53540) were obtained from TAIR (https://www.arabidopsis.org/), and the nucleotide sequences of the gene homologs were obtained using Hopbase (https://hopbase.cgrb.oregonstate.edu/). […] As the reference gene, the nucleotide sequence of the homolog of Arabidopsis thaliana EF1α (AGI code: AT1G18070) was obtained. The hop homolog genes were designated as H1HSFA2, H1HSP17.6C, and HIEF1α, respectively.
(§1) The materials as used in Example 4 were used.
The methods as employed in Example 4 were employed.
(§2) The leaves in the first and the second nodes from the apical buds of the tissue-cultured seedlings were sampled 1.5 months after the initiation of subculture and inoculated into a liquid medium consisting of a ½ Murashige and Skoog Plant Salt Mixture and 2 (w/v) % glucose. Specifically, a liquid medium was dispensed at 5 ml/well to a 6-well microplate (IWAKI), and 5 hop leaves were mounted thereon. […]
Thereafter, the relative expression level of the target gene upon N-acetylglutamic acid treatment was calculated by the ΔΔCt method.

[3] = tested on: H1ZAT10; assay: H1ZAT10 gene expression by real-time PCR, Example 13; type: in vivo, hop; conditions: 1 mM in medium, 20° C. for 2 hours, leaves; read-out: H1ZAT10 expression level, increase vs control
Text: as §1
The medium as used in Example 4 were used.
In order to design primers for the target genes necessary for gene expression analysis by real-time PCR, homologs of Arabidopsis thaliana oxidation stress-responsive genes in hop were searched for. The amino acid sequences of Arabidopsis thaliana ZAT10 (AGI code: AT1G27730) and ZAT12 (AGI code: AT5G59820) were obtained from TAIR (https://www.arabidopsis.org/), and the nucleotide sequences of the gene homologs were obtained using Hopbase (http:/hopbase.cgrb.oregonstate.edu/). […] As the reference gene, the nucleotide sequence of the homolog of Arabidopsis thaliana EF1α (AGI code: AT1G18070) was obtained. The hop homolog genes were designated as H1ZAT10, H1ZAT12, and HIEF1α, respectively.
as §2, with “microplate,” for “microplate (IWAKI),”
Thereafter, the relative expression levels of the target genes upon N-acetylglutamic acid treatment were calculated by the ΔΔCt method.

CC(=O)N[C@@H](CCC(=O)O)C(=O)O [N-acetylglutamic acid]
chlorosis of plants caused by the high-temperature treatment ([1]; 0.05 mM in medium): suppressed
chlorophyll content (fresh weight basis) ([1]; 0.05 mM): significantly higher
chlorosis of plants caused by the high-temperature treatment ([1]; 0.1 mM in medium): suppressed
chlorophyll content (fresh weight basis) ([1]; 0.1 mM): significantly higher
fold induction at 1000 µM [2]: 1.7
fold induction at 1000 µM [3]: 1.7
